Laboratory results: paper PMC12844998, “Bridging the Knowledge Gap in Harmaline’s Pharmacological Properties: A Focus on Thermodynamics and Kinetics” (Pharmaceutics, 2025)

Assay: Permeability in Franz diffusion cell, polydimethylsiloxane-polycarbonate membrane
Format: in vitro ADME
Conditions: pH 7.4, 310.15 K
Procedure: Permeability coefficients were measured in a vertical type Franz diffusion cell (PermeGear, Inc., Hellertown, PA, USA) maintained at 37 °C, with an effective diffusion area of 0.785 cm^2. The volumes of the donor (lower) and the acceptor (upper) compartments were 7 mL and 2 mL, respectively. Three artificial membranes were used in the study: Regenerated cellulose (RC): Standard Grade RC Dialysis Membrane with a molecular weight cut-off (MWCO) of 12–14 kDa and a flat width of 45 mm; PermeaPad barrier (PP): A commercially available barrier (PHABIOC, Fritz-Souchon-Str. 27, 32339 Espelkamp, Germany; www.innome.de), originally proposed by di Cagno et al.; Polydimethylsiloxane-polycarbonate membrane (PDS): A “Carbosil” membrane composed of 55% polydimethylsiloxane and 45% polycarbonate (PENTAMED, Moscow, Russia; https://medpolymer.ru/).
A solution of HML in pH 7.4 (7 mL) was placed into the donor chamber of a Franz cell. The acceptor compartment was filled with pure buffer pH 7.4 (1 mL). Over a period of 5 h, 0.5 mL samples were withdrawn from the acceptor compartment at 30 min intervals and replaced with an equal volume of fresh pH 7.4 buffer. The sample concentrations were determined by UV-Vis spectroscopy (Cary-50, Varian, Palo Alto, CA, USA; Software Version 3.00 (339)) or by HPLC (for experiments involving the polydimethylsiloxane-polycarbonate membrane). The cumulative amount of drug permeated through the membrane was plotted as a function of time. The flux was determined from the slope of the linear portion of each curve. The permeability coefficient was calculated using the following equation:(4) Papp=J/C0 where J is the flux, and C0 is the concentration of HML in the donor solution. A reverse dialysis setup was employed, where the lower chamber served as the donor compartment and was filled with the drug solution. Sink conditions were maintained in all experiments, meaning the drug concentration in the acceptor compartment never exceeded 10% of its concentration in the donor compartment at any time according the recommendations proposed in [18].
Samples from the acceptor compartment after permeation through the PDS membrane were analyzed by HPLC using a Shimadzu Prominence LC-20 AD system(Shimadzu Corporation, Kyoto, Japan) equipped with a PDA detector and a Luna® C-18 column (150 × 4.6 mm i.d., 5 μm particle size, 100 Å pore size). The column temperature was maintained at 40 °C. The mobile phase consisted of acetonitrile and water (containing 0.1% trifluoroacetic acid) in a 20:80 (v/v) ratio. An isocratic elution was performed at a flow rate of 1.0 mL·min^−1. The injection volume was 20 μL. The analytes were detected by UV at 373 nm, with a retention time of approximately 4.5 min. […]

With COc1ccc2c3c([nH]c2c1)C(C)=NCC3 [HML, Harmaline] the logPapp (PDS membrane) was −6.78, the “steady state flux J” value (PDS membrane, C0 2.62 × 10^−3 M) was 4.31 × 10^−7 µmol∙cm^−2∙s^−1 and the Papp at 5 h (PDS membrane, read-out: permeability coefficient Papp) was 0.165 ×10⁻⁶ cm/s. The “permeability coefficient for PDS, fold lower than for RC” value was 299 fold.
